Test results reported in ChEMBL document CHEMBL3603774, “Novel 5-functionalized-pyrazoles: Synthesis, characterization and pharmacological screening” (Bioorg Med Chem Lett, 2015).
≈ marks a conversion by molar mass, not a printed value.

Assays:
Bacillus cereus [1] = assay: Antibacterial activity against Bacillus cereus MTCC 8372 at 50 ug/ml after 24 hrs by disc diffusion method; assay type: functional; conditions: MTCC 8372, 24 h, read-out: IZ
Bacillus cereus [2] = assay: Antibacterial activity against Bacillus cereus MTCC 8372 at 100 ug/ml after 24 hrs by disc diffusion method; assay type: functional; conditions: MTCC 8372, 24 h, read-out: IZ
Staphylococcus aureus [3] = assay: Antibacterial activity against Staphylococcus aureus MTCC 96 at 50 ug/ml after 24 hrs by disc diffusion method; assay type: functional; conditions: MTCC 96, 24 h, read-out: IZ
Staphylococcus aureus [4] = assay: Antibacterial activity against Staphylococcus aureus MTCC 96 at 100 ug/ml after 24 hrs by disc diffusion method; assay type: functional; conditions: MTCC 96, 24 h, read-out: IZ
Escherichia coli [5] = assay: Antibacterial activity against Escherichia coli MTCC 724 at 50 ug/ml after 24 hrs by disc diffusion method; assay type: functional; conditions: MTCC 724, 24 h, read-out: IZ
Escherichia coli [6] = assay: Antibacterial activity against Escherichia coli MTCC 724 at 100 ug/ml after 24 hrs by disc diffusion method; assay type: functional; conditions: MTCC 724, 24 h, read-out: IZ
Klebsiella pneumoniae [7] = assay: Antibacterial activity against Klebsiella pneumoniae MTCC 3384 at 50 ug/ml after 24 hrs by disc diffusion method; assay type: functional; conditions: MTCC 3384, 24 h, read-out: IZ
Klebsiella pneumoniae [8] = assay: Antibacterial activity against Klebsiella pneumoniae MTCC 3384 at 100 ug/ml after 24 hrs by disc diffusion method; assay type: functional; conditions: MTCC 3384, 24 h, read-out: IZ
Aspergillus flavus [9] = assay: Antifungal activity against Aspergillus flavus MTCC 873 at 50 ug/ml after 24 hrs by disc diffusion method; assay type: functional; conditions: MTCC 873, 24 h, read-out: IZ
Aspergillus flavus [10] = assay: Antifungal activity against Aspergillus flavus MTCC 873 at 100 ug/ml after 24 hrs by disc diffusion method; assay type: functional; conditions: MTCC 873, 24 h, read-out: IZ
Aspergillus niger [11] = assay: Antifungal activity against Aspergillus niger MTCC 281 at 50 ug/ml after 24 hrs by disc diffusion method; assay type: functional; conditions: MTCC 281, 24 h, read-out: IZ
Bacillus cereus [12] = assay: Antibacterial activity against Bacillus cereus MTCC 8372 after 24 hrs by microdilution method; assay type: functional; conditions: MTCC 8372, 24 h
Bacillus cereus [13] = assay: Antibacterial activity against Bacillus cereus MTCC 8372 assessed as concentration required to completely destroy test microorganisms after 24 hrs; assay type: functional; conditions: MTCC 8372, 24 h
Staphylococcus aureus [14] = assay: Antibacterial activity against Staphylococcus aureus MTCC 96 after 24 hrs by microdilution method; assay type: functional; conditions: MTCC 96, 24 h
Staphylococcus aureus [15] = assay: Antibacterial activity against Staphylococcus aureus MTCC 96 assessed as concentration required to completely destroy test microorganisms after 24 hrs; assay type: functional; conditions: MTCC 96, 24 h
Escherichia coli [16] = assay: Antibacterial activity against Escherichia coli MTCC 724 after 24 hrs by microdilution method; assay type: functional; conditions: MTCC 724, 24 h
Escherichia coli [17] = assay: Antibacterial activity against Escherichia coli MTCC 724 assessed as concentration required to completely destroy test microorganisms after 24 hrs; assay type: functional; conditions: MTCC 724, 24 h
Klebsiella pneumoniae [18] = assay: Antibacterial activity against Klebsiella pneumoniae MTCC 3384 after 24 hrs by microdilution method; assay type: functional; conditions: MTCC 3384, 24 h
Klebsiella pneumoniae [19] = assay: Antibacterial activity against Klebsiella pneumoniae MTCC 3384 assessed as concentration required to completely destroy test microorganisms after 24 hrs; assay type: functional; conditions: MTCC 3384, 24 h
Aspergillus flavus [20] = assay: Antifungal activity against Aspergillus flavus MTCC 873 after 48 hrs by microdilution method; assay type: functional; conditions: MTCC 873, 48 h
Aspergillus flavus [21] = assay: Antifungal activity against Aspergillus flavus MTCC 873 assessed as concentration required to completely destroy test microorganisms after 24 hrs; assay type: functional; conditions: MTCC 873, 24 h
Aspergillus niger [22] = assay: Antifungal activity against Aspergillus niger MTCC 281 after 48 hrs by microdilution method; assay type: functional; conditions: MTCC 281, 48 h
Aspergillus niger [23] = assay: Antifungal activity against Aspergillus niger MTCC 281 assessed as concentration required to completely destroy test microorganisms after 24 hrs; assay type: functional; conditions: MTCC 281, 24 h
Aspergillus niger [24] = assay: Antifungal activity against Aspergillus niger MTCC 281 at 100 ug/ml after 24 hrs by disc diffusion method; assay type: functional; conditions: MTCC 281, 24 h, read-out: IZ
Alpha amylase = molecular target: T1, Alpha amylase (Homo sapiens, UniProt P0DUB6); assay: Inhibition of alpha-amylase (unknown origin) using starch as substrate after 30 mins by spectrophotometer analysis
T1 sequence (P0DUB6 whole entry): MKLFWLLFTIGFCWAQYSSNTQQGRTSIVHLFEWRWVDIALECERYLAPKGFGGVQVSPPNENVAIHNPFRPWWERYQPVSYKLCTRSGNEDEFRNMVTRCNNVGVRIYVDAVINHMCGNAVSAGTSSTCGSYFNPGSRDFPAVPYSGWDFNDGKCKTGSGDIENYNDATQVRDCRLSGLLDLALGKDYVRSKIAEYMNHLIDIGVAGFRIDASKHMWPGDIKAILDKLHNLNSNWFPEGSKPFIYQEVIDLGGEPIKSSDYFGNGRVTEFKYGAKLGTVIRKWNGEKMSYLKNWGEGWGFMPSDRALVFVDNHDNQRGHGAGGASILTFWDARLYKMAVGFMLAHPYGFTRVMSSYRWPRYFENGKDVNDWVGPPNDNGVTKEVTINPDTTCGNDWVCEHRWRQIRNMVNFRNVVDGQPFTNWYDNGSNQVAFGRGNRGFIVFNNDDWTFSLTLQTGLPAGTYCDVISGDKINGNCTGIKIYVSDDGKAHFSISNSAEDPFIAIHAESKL

[25] = Inhibition of alpha-glucosidase (unknown origin) using p-nitrophenol glycoside as substrate after 30 mins by colorimetric analysis; design: species or system Homo sapiens

MIC (Bacillus cereus [12]) | MIC (Staphylococcus aureus [14]) | MIC (Escherichia coli [16]) | MIC (Klebsiella pneumoniae [18]) | MIC (Aspergillus flavus [20]) | SMILES | zone of inhibition at 50 µg/mL (Bacillus cereus [1]) | zone of inhibition at 100 µg/mL (Bacillus cereus [2]) | zone of inhibition at 50 µg/mL (Staphylococcus aureus [3]) | zone of inhibition at 100 µg/mL (Staphylococcus aureus [4]) | zone of inhibition at 50 µg/mL (Escherichia coli [5]) | zone of inhibition at 100 µg/mL (Escherichia coli [6]) | zone of inhibition at 50 µg/mL (Klebsiella pneumoniae [7]) | zone of inhibition at 100 µg/mL (Klebsiella pneumoniae [8]) | zone of inhibition at 50 µg/mL (Aspergillus flavus [9]) | zone of inhibition at 100 µg/mL (Aspergillus flavus [10]) | zone of inhibition at 50 µg/mL (Aspergillus niger [11]) | MBC (Bacillus cereus [13]) | MBC (Staphylococcus aureus [15]) | MBC (Escherichia coli [17]) | MBC (Klebsiella pneumoniae [19]) | other results
60 µg/mL (≈ 142 µM) | 55 µg/mL (≈ 130 µM) | 55 µg/mL (≈ 130 µM) | 40 µg/mL (≈ 94.7 µM) | 45 µg/mL (≈ 107 µM) | CCOC(=O)c1c(-c2ccccc2)nn(-c2ccccc2)c1Cn1cnc2ccccc21 | 6 mm | 12 mm | 6 mm | 12 mm | 8 mm | 10 mm | 6 mm | 10 mm | 12 mm | 15 mm | 25 mm | 285 µg/mL (≈ 675 µM) | 290 µg/mL (≈ 686 µM) | 270 µg/mL (≈ 639 µM) | 220 µg/mL (≈ 521 µM) | MFC (Aspergillus flavus [21]): 275 µg/mL (≈ 651 µM); MIC (Aspergillus niger [22]): 50 µg/mL (≈ 118 µM); MFC (Aspergillus niger [23]): 280 µg/mL (≈ 663 µM); zone of inhibition at 100 µg/mL (Aspergillus niger [24]): 20 mm; IC50 (Alpha amylase): 35 µg/mL (≈ 82.8 µM); IC50 [25]: 30 µg/mL (≈ 71 µM)
15 µg/mL (≈ 22.8 µM) | 40 µg/mL (≈ 60.8 µM) | 35 µg/mL (≈ 53.2 µM) | 30 µg/mL (≈ 45.6 µM) | 55 µg/mL (≈ 83.6 µM) | CCOC(=O)c1c(-c2ccccc2)nn(-c2ccccc2)c1COCc1c(-c2ccc(F)cc2)nc(N(C)S(C)(=O)=O)nc1C(C)C | 8 mm | 20 mm | 6 mm | 19 mm | 3 mm | 10 mm | 8 mm | 10 mm | 12 mm | 6 mm | 10 mm | 150 µg/mL (≈ 228 µM) | 190 µg/mL (≈ 289 µM) | 280 µg/mL (≈ 426 µM) | 240 µg/mL (≈ 365 µM) | MFC (Aspergillus flavus [21]): 300 µg/mL (≈ 456 µM); MIC (Aspergillus niger [22]): 50 µg/mL (≈ 76 µM); MFC (Aspergillus niger [23]): 280 µg/mL (≈ 426 µM); zone of inhibition at 100 µg/mL (Aspergillus niger [24]): 8 mm; IC50 (Alpha amylase): 15 µg/mL (≈ 22.8 µM); IC50 [25]: 25 µg/mL (≈ 38 µM)
40 µg/mL (≈ 93.8 µM) | 40 µg/mL (≈ 93.8 µM) | 55 µg/mL (≈ 129 µM) | 55 µg/mL (≈ 129 µM) | 40 µg/mL (≈ 93.8 µM) | CCOC(=O)c1c(-c2ccccc2)nn(-c2ccccc2)c1COc1ccc(C=O)cc1 | 3 mm | 3 mm | 2 mm | 8 mm | 10 mm | 16 mm | 8 mm | 12 mm | 20 mm | 5 mm | 12 mm | 210 µg/mL (≈ 492 µM) | 210 µg/mL (≈ 492 µM) | 235 µg/mL (≈ 551 µM) | 230 µg/mL (≈ 539 µM) | MFC (Aspergillus flavus [21]): 275 µg/mL (≈ 645 µM); MIC (Aspergillus niger [22]): 45 µg/mL (≈ 106 µM); MFC (Aspergillus niger [23]): 260 µg/mL (≈ 610 µM); zone of inhibition at 100 µg/mL (Aspergillus niger [24]): 10 mm; IC50 (Alpha amylase): 60 µg/mL (≈ 141 µM); IC50 [25]: 65 µg/mL (≈ 152 µM)
10 µg/mL (≈ 19.2 µM) | 20 µg/mL (≈ 38.4 µM) | 15 µg/mL (≈ 28.8 µM) | 15 µg/mL (≈ 28.8 µM) | 30 µg/mL (≈ 57.6 µM) | CCOC(=O)c1c(-c2ccccc2)nn(-c2ccccc2)c1Cn1c(S)nc2ccc(OC(F)F)cc21 | 11 mm | 26 mm | 12 mm | 21 mm | 20 mm | 33 mm | 16 mm | 28 mm | 18 mm | 20 mm | 12 mm | 130 µg/mL (≈ 250 µM) | 120 µg/mL (≈ 231 µM) | 135 µg/mL (≈ 259 µM) | 130 µg/mL (≈ 250 µM) | MFC (Aspergillus flavus [21]): 155 µg/mL (≈ 298 µM); MIC (Aspergillus niger [22]): 25 µg/mL (≈ 48 µM); MFC (Aspergillus niger [23]): 145 µg/mL (≈ 279 µM); zone of inhibition at 100 µg/mL (Aspergillus niger [24]): 22 mm; IC50 (Alpha amylase): 10 µg/mL (≈ 19.2 µM); IC50 [25]: 15 µg/mL (≈ 28.8 µM)
